This note sets out measurements from US10517889B2, “Modulators of SMAD7 expression” (Ionis Pharmaceuticals, Inc., priority 2017, dated 2019).

One may read the % Inhibition as the change of the read-out against control, counted positive when it falls. A high value points to a strong effect.

Strand notation (5' to 3'): a small letter for the sugar, then the base; units joined by * are phosphorothioate-linked, units joined directly phosphodiester-linked; [ ] holds rarer units or linkages, { } end groups; capitals alone tell only the bases. k = constrained ethyl (cEt); [5mC] = 5-methylcytosine; d = 2'-deoxy (DNA)

The subject of one series is human SMAD7 mRNA. As to the kind of experiment: Antisense inhibition of human SMAD7 mRNA expression in Hep3B cells by 3-10-3 cEt gapmers, 10,000 nM, electroporation (Example 2). Format: cell-based. The note with it: Hep3B cells, electroporation with 10,000 nM antisense oligonucleotide, approximately 24 hours, RTS5062, percent inhibition of SMAD7 mRNA relative to untreated control cells. In outline:
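Percent inhibition of SMAD7 mRNA, relative to untreated cells, after ~24 h exposure of electroporated Hep3B cells to 10,000 nM cEt gapmer; levels by qRT-PCR, corrected for total RNA.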
For the substance “799706 (antisense k[5mC]*kT*kT*dG*dT*dG*dG*dT*dA*dA*dA*dA*dT*kA*k[5mC]*kA) [compound 799706]”, the “% Inhibition” value is 47%. On the same count and under the same terms, the figure for “799707 (antisense kA*kA*kA*d[5mC]*dT*dT*dG*dT*dG*dG*dT*dA*dA*kA*kA*kT) [compound 799707]” is 38%; for “799710 (antisense kG*kT*k[5mC]*dA*dA*dA*d[5mC]*dT*dT*dG*dT*dG*dG*kT*kA*kA) [compound 799710]” it is 48%. With “799723 (antisense kA*kG*k[5mC]*d[5mC]*dA*dA*d[5mC]*d[5mC]*d[5mC]*dT*dG*dG*d[5mC]*kA*k[5mC]*k[5mC]) [compound 799723]”, the “% Inhibition” value is reported as 0%. Still for that read-out and setting: for “799724 (antisense kA*kA*k[5mC]*dT*dT*dG*dG*dG*d[5mC]*dA*dA*dG*dG*kA*k[5mC]*kA) [compound 799724]” the value was 24%; for “799725 (antisense kG*kG*k[5mC]*d[5mC]*dA*d[5mC]*dT*dG*d[5mC]*dA*dG*d[5mC]*d[5mC]*k[5mC]*kT*kA) [compound 799725]”, 0%; for “799726 (antisense kG*kT*kA*dT*d[5mC]*d[5mC]*dT*dT*dT*d[5mC]*dA*d[5mC]*dG*kA*kG*kG) [compound 799726]”, 49%. The same measure, in the same setting: for “799727 (antisense kT*kG*kA*d[5mC]*dA*dG*dT*dA*dG*dG*d[5mC]*dA*dG*kG*k[5mC]*kA) [compound 799727]” the value was 22%. For the substance “799728 (antisense k[5mC]*kG*kG*dA*dG*dA*dG*dG*dA*dA*dG*d[5mC]*d[5mC]*kT*k[5mC]*kT) [compound 799728]”, the “% Inhibition” value is recorded as 37%. On the same count and under the same terms, for “799729 (antisense kT*kA*kT*d[5mC]*dT*dT*d[5mC]*d[5mC]*d[5mC]*dG*d[5mC]*dT*dG*kA*kA*kA) [compound 799729]” the value was 52%; for “799730 (antisense kT*kA*kA*dA*dT*dT*dG*dA*dG*dA*dA*d[5mC]*dT*kG*kT*kG) [compound 799730]”, 60%. The same measure, in the same setting: for “799741 (antisense kA*kG*kT*dT*dA*dT*d[5mC]*dA*d[5mC]*d[5mC]*d[5mC]*dT*dG*kT*kT*kT) [compound 799741]” the value was 32%; for “799742 (antisense kA*kT*kA*dT*dT*dT*d[5mC]*d[5mC]*dT*dG*dT*dT*dA*kA*k[5mC]*kT) [compound 799742]”, 23%; for “799744 (antisense kA*kA*kA*dG*dA*dA*dA*dA*dT*dG*dG*d[5mC]*d[5mC]*kT*kA*k[5mC]) [compound 799744]”, 1%. As to “799745 (antisense kG*kG*k[5mC]*dA*dG*dT*dT*dA*dA*d[5mC]*dA*dT*dT*kT*k[5mC]*kA) [compound 799745]”, the “% Inhibition” value turned out to be 43%. Same read-out and setting: for “799746 (antisense kA*kA*kT*dG*dG*dG*dA*dA*dA*dT*dA*dA*dG*kG*k[5mC]*kG) [compound 799746]” the value was 59%. For the substance “799747 (antisense kA*kA*kA*dT*dG*dG*dG*dA*dA*dA*dT*dA*dA*kG*kG*k[5mC]) [compound 799747]”, the “% Inhibition” value was determined as 43%.

In the case of “799748 (antisense kG*k[5mC]*kT*dG*dA*dA*dA*dA*dA*dG*dT*d[5mC]*dA*kT*kG*kA) [compound 799748]”, the “% Inhibition” value is listed as 51%. Turning to “799749 (antisense kT*kG*k[5mC]*dT*dT*dG*dG*d[5mC]*d[5mC]*dT*dT*dA*d[5mC]*k[5mC]*kA*kT) [compound 799749]”, the “% Inhibition” value was determined as 17%. Still for that read-out and setting: for “799750 (antisense kA*kG*k[5mC]*d[5mC]*dA*dA*dG*dA*dG*d[5mC]*dT*dG*d[5mC]*kT*kT*kG) [compound 799750]” the value was 0%; for “799761 (antisense kT*kG*kT*d[5mC]*dA*dT*dT*dA*dG*dA*dA*d[5mC]*dA*kA*kT*kG) [compound 799761]”, 35%. Regarding “799762 (antisense kG*kT*k[5mC]*d[5mC]*dT*dA*dA*dA*dG*dA*d[5mC]*dG*dG*k[5mC]*kT*k[5mC]) [compound 799762]”, the “% Inhibition” value came out at 21%.

In the case of “799763 (antisense kT*kG*kT*d[5mC]*d[5mC]*dT*dA*dA*dA*dG*dA*d[5mC]*dG*kG*k[5mC]*kT) [compound 799763]”, the “% Inhibition” value is given as 50%. On the same count and under the same terms, for “799764 (antisense kA*k[5mC]*kG*d[5mC]*dT*dA*dA*dG*dG*dA*dA*dA*dA*kA*kG*k[5mC]) [compound 799764]” the value was 19%; for “799765 (antisense kA*kA*kG*d[5mC]*dA*d[5mC]*dG*d[5mC]*dT*dA*dA*dG*dG*kA*kA*kA) [compound 799765]”, 23%; for “799766 (kA*kA*kA*d[5mC]*dA*dA*dA*dG*d[5mC]*dA*d[5mC]*dG*d[5mC]*kT*kA*kA; antisense) [compound 799766]”, 35%. The same measure, in the same setting: for “799767 (kT*k[5mC]*kT*dG*dT*dT*dT*dG*dG*dA*d[5mC]*dA*dA*kG*kT*kT; antisense) [compound 799767]” the value was 47%.

Still in this series, the particulars now being: Hep3B cells, electroporation, 10,000 nM antisense oligonucleotide, approximately 24 hours, RTS5062, relative to untreated control cells.
Take “799713 (antisense k[5mC]*kA*k[5mC]*dA*dA*dT*d[5mC]*dA*d[5mC]*dT*dG*dT*dT*k[5mC]*k[5mC]*kT) [compound 799713]”: the “% inhibition of SMAD7 mRNA expression” value is 0%.

“799714 (antisense k[5mC]*kA*k[5mC]*d[5mC]*dA*dA*dA*dA*d[5mC]*dA*dA*dG*dT*kG*kT*k[5mC]) [compound 799714]”: the “% inhibition of SMAD7 mRNA expression” value was found to be 33%. Same read-out and setting: for “799715 (antisense k[5mC]*k[5mC]*kT*d[5mC]*dA*dG*dG*dG*d[5mC]*dT*dG*d[5mC]*d[5mC]*kA*k[5mC]*k[5mC]) [compound 799715]” the value was 32%; for “799716 (antisense kG*kG*k[5mC]*dT*dA*d[5mC]*d[5mC]*dA*dG*d[5mC]*d[5mC]*dT*dT*kG*k[5mC]*kT) [compound 799716]”, 32%; for “799717 (antisense kG*k[5mC]*kA*dG*dG*d[5mC]*dT*dA*d[5mC]*d[5mC]*dA*dG*d[5mC]*k[5mC]*kT*kT) [compound 799717]”, 0%. Still for that read-out and setting: the figure for “799719 (antisense k[5mC]*k[5mC]*kT*dT*dT*d[5mC]*dT*dA*d[5mC]*dT*dA*dG*dA*kA*kA*kA) [compound 799719]” is 19%; for “799720 (antisense kA*k[5mC]*kA*d[5mC]*dA*d[5mC]*dA*dG*d[5mC]*dA*dG*dA*dA*kG*kG*k[5mC]) [compound 799720]” it is 40%. “799721 (antisense kG*kT*kA*dA*d[5mC]*dA*d[5mC]*dA*d[5mC]*dA*dG*d[5mC]*dA*kG*kA*kA) [compound 799721]”: the “% inhibition of SMAD7 mRNA expression” value is reported as 42%. The same measure, in the same setting: for “799731 (antisense k[5mC]*kT*kT*dT*d[5mC]*dT*dT*dG*dG*dT*dG*dT*dG*kT*kT*kA) [compound 799731]” the value was 37%.

“799732 (antisense kG*kG*kG*dA*dT*d[5mC]*dA*dG*dG*dT*dG*dA*dG*kT*kG*kT) [compound 799732]”: the “% inhibition of SMAD7 mRNA expression” value was 48%. On the same count and under the same terms, the figure for “799733 (antisense kG*kT*kT*dT*dA*dG*dG*dT*dA*dG*dA*dG*dT*kG*kG*k[5mC]) [compound 799733]” is 27%; for “799735 (antisense kT*k[5mC]*k[5mC]*dA*d[5mC]*dG*dG*dG*dA*dG*dT*dG*dG*kA*kA*kG) [compound 799735]” it is 0%. Still for that read-out and setting: the figure for “799736 (antisense kT*kT*k[5mC]*dT*dA*d[5mC]*dA*d[5mC]*d[5mC]*dT*dT*dT*dT*kA*kA*kG) [compound 799736]” is 56%; for “799737 (antisense k[5mC]*kT*kT*dA*dG*dA*dG*dT*dA*dT*dA*dA*dA*kT*kA*k[5mC]) [compound 799737]” it is 5%; for “799738 (antisense kT*k[5mC]*kA*dA*dA*dA*dA*dA*dT*dG*dT*d[5mC]*d[5mC]*k[5mC]*k[5mC]*kA) [compound 799738]” it is 50%.

For “799739 (antisense k[5mC]*kA*k[5mC]*d[5mC]*d[5mC]*d[5mC]*dT*dA*dT*d[5mC]*dA*dA*dA*kA*kA*kA) [compound 799739]”, the “% inhibition of SMAD7 mRNA expression” value is on record as 0%. Still for that read-out and setting: the figure for “799740 (antisense kT*kT*kA*dA*dA*dT*dA*dA*d[5mC]*dT*dG*dT*d[5mC]*k[5mC]*kT*k[5mC]) [compound 799740]” is 48%; for “799752 (antisense kT*kT*kA*dA*dA*dA*d[5mC]*dT*dG*dA*dG*d[5mC]*dT*kA*kA*kT) [compound 799752]” it is 0%; for “799754 (antisense kG*kG*k[5mC]*dT*dA*dA*dG*dT*dG*d[5mC]*d[5mC]*dA*dG*kG*kT*kG) [compound 799754]” it is 0%. On the same count and under the same terms, for “799756 (antisense k[5mC]*kA*kG*dG*dG*d[5mC]*dA*dG*d[5mC]*dT*d[5mC]*d[5mC]*dG*kA*kG*kA) [compound 799756]” the value was 44%; for “799757 (antisense k[5mC]*k[5mC]*kG*dT*dT*dA*d[5mC]*dT*dG*dG*dA*d[5mC]*dA*k[5mC]*kA*kG) [compound 799757]”, 41%; for “799758 (antisense k[5mC]*kA*k[5mC]*d[5mC]*dG*dT*dT*dA*d[5mC]*dT*dG*dG*dA*k[5mC]*kA*k[5mC]) [compound 799758]”, 57%. For the substance “799760 (antisense kT*kT*k[5mC]*dT*dA*dG*dG*dT*dG*dA*dA*d[5mC]*d[5mC]*kA*kT*kA) [compound 799760]”, the “% inhibition of SMAD7 mRNA expression” value is 58%.
